Measured values reported in patent US9241487B2, “Pyrimidine derivatives and use thereof as pesticides” (BAYER INTELLECTUAL PROPERTY GMBH, priority 2010, dated 2016).

Experiments:
Type in all cases: in vivo
Leptosphaeria nodorum = Leptosphaeria nodorum test (wheat)/protective; settings: Parastagonospora nodorum, wheat plants, protective spray, evaluation 7-9 days after inoculation, read-out: Efficacy (%)
Method: Leptosphaeria nodorum Test (Wheat)/Protective
(§1) Solvent: 49 parts by weight of N,N-dimethylformamide
(§2) Emulsifier: 1 part by weight of alkylaryl polyglycol ether
To produce a suitable preparation of active compound, 1 part by weight of active compound is mixed with the stated amounts of solvent and emulsifier, and the concentrate is diluted with water to the desired concentration. To test for protective activity, young wheat plants are sprayed with the preparation of active compound at the stated application rate. 1 day after the treatment, the plants are inoculated with an aqueous spore suspension of Leptosphaeria nodorum and then remain at 100% relative atmospheric humidity and 22° C. for 48 h. The plants are then placed in a greenhouse at 90% relative atmospheric humidity and a temperature of 22° C. Evaluation is carried out 7-9 days after the inoculation. 0% means an efficacy which corresponds to that of the control, whereas an efficacy of 100% means that no infection is observed. In this test, the following compounds according to the invention show, at an active compound concentration of 500 ppm, an efficacy of 70% or more: […]

Pyrenophora teres = Pyrenophora teres test (barley)/protective; settings: protective spray, evaluation 7-9 days after inoculation
Method: Pyrenophora teres Test (Barley)/Protective
Solvent: 49 parts by weight of N,N-dimethylacetamide
as §2
To produce a suitable preparation of active compound, 1 part by weight of active compound is mixed with the stated amounts of solvent and emulsifier, and the concentrate is diluted with water to the desired concentration. To test for protective activity, young plants are sprayed with the preparation of active compound at the stated application rate. 1 day after this treatment, the plants are inoculated with an aqueous spore suspension of Pyrenophora teres. The plants remain in an incubation cabin at 20° C. and 100% relative atmospheric humidity for 48 hours. The plants are placed in a greenhouse at a temperature of about 20° C. and a relative atmospheric humidity of about 80%. Evaluation is carried out 7-9 days after the inoculation. 0% means an efficacy which corresponds to that of the control, whereas an efficacy of 100% means that no infection is observed.

Sphaerotheca fuliginea = assay: Sphaerotheca test (cucumber)/protective; settings: Podosphaera fuliginea, 168 h, cucumber plants, protective spray, evaluation 7 days after inoculation, read-out: Efficacy (%)
Method: Sphaerotheca Test (Cucumber)/Protective
as §1, §2
To produce a suitable preparation of active compound, 1 part by weight of active compound is mixed with the stated amounts of solvent and emulsifier, and the concentrate is diluted with water to the desired concentration. To test for protective activity, young cucumber plants are sprayed with the preparation of active compound at the stated application rate. 1 day after the treatment, the plants are inoculated with a spore suspension of Sphaerotheca fuliginea. The plants are then placed in a greenhouse at 70% relative air humidity and a temperature of 23° C. Evaluation follows 7 days after the inoculation. 0% means an efficacy which corresponds to that of the control, whereas an efficacy of 100% means that no infection is observed. In this test, the following compounds according to the invention show, at an active compound concentration of 500 ppm, an efficacy of 70% or more: […]

| Structure (SMILES) | pest or weed control at 500 ppm (Leptosphaeria nodorum) [%] | Efficacy (%) (Pyrenophora teres; 100 ppm) | Efficacy (%) (Pyrenophora teres; 500 ppm) | pest or weed control at 500 ppm (Sphaerotheca fuliginea) [%] |
| --- | --- | --- | --- | --- |
| CC(C)C(O)(COc1ccc(OC(F)(F)F)cc1)c1cncnc1 (stereo not drawn) [Compound 2] | 100 | 0 | 0 | 99 |
| CC(C)(C)C(O)(COc1ccc(OC(F)(F)F)cc1)c1cncnc1 (stereo not drawn) [Compound 12] | 95 | 60 | 95 | 100 |
| CC(C)(C)C(O)(COc1ccc(SC(F)(F)F)cc1)c1cncnc1 (stereo not drawn) [Compound 17] | 94 |  |  | 95 |
| CC1(C(O)(COc2ccc(OC(F)(F)F)cc2)c2cncnc2)CC1 (stereo not drawn) [Compound 18] | 95 |  |  | 95 |
